We go through eleven compounds from patent EP4778920A1, “INDAZOLONE COMPOUND, PREPARATION METHOD THEREFOR, PHARMACEUTICAL COMPOSITION, AND USE” (Shanghai Institute of Materia Medica, Chinese Academy of …, priority 2023, dated 2025).

One series concerns MM.1S cells. The series is described as follows: MM.1S cell proliferation inhibition (MTS assay). In kind it is cell-based. Particulars: Homo sapiens, MM1.S, 168 h, 7 days incubation, read-out: MM1.S (IC50, Inhibitory Activity of Compounds on MM.1S Cell Proliferation). The method, then:
The cell concentration was diluted according to a 7-day incubation period, and 180 µL of cell suspension was added to each well of a 96-well plate, with 20,000 cells per well. […] The test compounds were prepared from a 10 mM stock solution and serially diluted in a 5-fold gradient, and 20 µL of the diluted solution was added to each compound-treated well (final DMSO concentration also 0.2%). The cells were incubated in a 37 °C, 5% CO2 incubator for 7 days. After incubation, the reaction solution was prepared according to the MTS assay kit instructions (Promega, G5430), and 20 µL was added to each well. The plate was incubated at 37 °C with 5% CO2 for 3-4 hours. The absorbance at 490 nm was measured using a microplate reader, and the absorbance at 690 nm was used as the background value. […] The IC50 values for cell proliferation inhibition were determined using GraphPad Prism 5.0. Each experiment was repeated three times, and three parallel replicates were performed in each experiment to calculate the mean value and standard deviation.
Inhibitory Activity of Compounds on MM.1S Cell Proliferation

The next series concerns MV-4-11 cells. The series is described as follows: MV-4-11 cell proliferation inhibition (MTS assay). In kind it is cell-based. Particulars: Homo sapiens, MV4-11, 168 h, 7 days incubation, MTS, read-out: MV-411 (IC50, Inhibitory Activity of Compounds on MV-4-11 Cell Proliferation). The method, then: MV-4-11 cells were cultured in IMDM medium supplemented with 10% fetal bovine serum and collected. The cell concentration was diluted according to a 7-day incubation period, and 180 µL of cell suspension was added to each well of a 96-well plate, resulting in 2,000 cells per well. […] The test compounds were prepared from a 10 mM stock solution and serially diluted in a five-fold gradient, and 20 µL of the diluted compound solution was added to each compound-treated well (final DMSO concentration 0.2%). The cells were incubated in a 37 °C, 5% CO2 incubator for 7 days. After incubation, the reaction solution was prepared according to the MTS assay kit instructions (Promega, G5430), and 20 µL was added to each well. The plate was further incubated at 37 °C with 5% CO2 for 3-4 hours. The absorbance at 490 nm was measured using a microplate reader, and the absorbance at 690 nm was used as the background value. The final raw data were calculated as OD490 - OD690. […] The IC50 values for cell proliferation inhibition were determined using GraphPad Prism 5.0. Each experiment was repeated three times, and three parallel replicates were performed in each experiment to calculate the mean value and standard deviation.
Table 3. Inhibitory Activity of Compounds on MV-4-11 Cell Proliferation
In general terms: Tetrazolium dyes change colour on reduction, which living cells bring about.

Another series has as its system Mino cells. Kind of series: Mino cell proliferation inhibition (MTS assay). In kind it is cell-based. The note with it: Homo sapiens, 72 h, 3 days incubation, read-out: Mino (IC50, Inhibitory Activity of Compounds on Mino Cell Proliferation). The method, then:
The cell concentration was diluted according to a 3-day incubation period, and 90 µL of cell suspension was added to each well of a 96-well plate, resulting in 8,000 cells per well. […] The test compounds were prepared from a 10 mM stock solution and serially diluted in a five-fold gradient. Similarly, 10 µL of the diluted compound solution was added to each compound-treated well (final DMSO concentration 0.2%).
The cells were incubated in a 37 °C, 5% CO2 incubator for 3 days. After incubation, the reaction solution was prepared according to the MTS assay kit instructions (Promega, G5430), and 20 µL was added to each well. The plate was further incubated at 37 °C with 5% CO2 for 3-4 hours. The absorbance at 490 nm was measured using a microplate reader, and the absorbance at 690 nm was used as the background value. The final raw data were calculated as OD490 - OD690. […] The IC50 values for cell proliferation inhibition were determined using GraphPad Prism 5.0. Each experiment was repeated three times, and three parallel replicates were performed in each experiment to calculate the mean value and standard deviation.
Table 2. Inhibitory Activity of Compounds on Mino Cell Proliferation

Another series concerns the target CRBN/DDB1 (Homo sapiens, UniProt Q96SW2). The series is described as follows: CRBN/DDB1 binding TR-FRET assay. Particulars: read-out: AVE_Inhibition% (1 µM). On the procedure:
• 1. 0.1 µL of the reference solution was added to a 384-well assay plate. The final detection concentration was 100 µM, followed by 3-fold serial dilution for 10 points. • 2. 2.5 µL of CRBN/DDB1 was added to the 384-well plate and centrifuged at 1000 rpm for 1 minute. • 3. 2.5 µL of Thalidomide-BODIPY was added to the plate, centrifuged at 1000 rpm for 1 minute, and incubated at 25 °C for 15 minutes. • 4. 5 µL of His-Tb was added to the plate, centrifuged at 1000 rpm for 1 minute, and incubated at 25 °C for 60 minutes. • 5. The TR-FRET signal was measured using a BMG plate reader with a fluorescence ratio of 520/490 nm.
Table 4. Inhibition Rate of Compounds on CRBN/DDB1 Binding
(Time-resolved FRET reads energy transfer from a long-lived donor to a nearby acceptor.)

For series [1] the following is noted: cited from earlier work.

Like-named read-outs stand apart in the source and are kept apart here.

Sequence of CRBN/DDB1 (Q96SW2 whole entry, species assumed): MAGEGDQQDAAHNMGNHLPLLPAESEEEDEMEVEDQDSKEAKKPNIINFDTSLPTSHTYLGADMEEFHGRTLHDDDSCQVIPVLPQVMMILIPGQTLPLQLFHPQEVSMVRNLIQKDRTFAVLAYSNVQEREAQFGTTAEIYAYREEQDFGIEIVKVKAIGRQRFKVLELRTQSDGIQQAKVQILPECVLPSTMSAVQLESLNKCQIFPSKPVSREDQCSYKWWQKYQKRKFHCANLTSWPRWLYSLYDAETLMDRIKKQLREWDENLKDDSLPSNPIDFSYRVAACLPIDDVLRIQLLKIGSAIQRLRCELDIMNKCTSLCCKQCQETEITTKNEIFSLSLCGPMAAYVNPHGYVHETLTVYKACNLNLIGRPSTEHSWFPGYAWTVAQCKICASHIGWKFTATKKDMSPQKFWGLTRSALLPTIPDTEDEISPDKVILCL
Sequence of CRBN/DDB1 (Q16531 whole entry partner, species assumed): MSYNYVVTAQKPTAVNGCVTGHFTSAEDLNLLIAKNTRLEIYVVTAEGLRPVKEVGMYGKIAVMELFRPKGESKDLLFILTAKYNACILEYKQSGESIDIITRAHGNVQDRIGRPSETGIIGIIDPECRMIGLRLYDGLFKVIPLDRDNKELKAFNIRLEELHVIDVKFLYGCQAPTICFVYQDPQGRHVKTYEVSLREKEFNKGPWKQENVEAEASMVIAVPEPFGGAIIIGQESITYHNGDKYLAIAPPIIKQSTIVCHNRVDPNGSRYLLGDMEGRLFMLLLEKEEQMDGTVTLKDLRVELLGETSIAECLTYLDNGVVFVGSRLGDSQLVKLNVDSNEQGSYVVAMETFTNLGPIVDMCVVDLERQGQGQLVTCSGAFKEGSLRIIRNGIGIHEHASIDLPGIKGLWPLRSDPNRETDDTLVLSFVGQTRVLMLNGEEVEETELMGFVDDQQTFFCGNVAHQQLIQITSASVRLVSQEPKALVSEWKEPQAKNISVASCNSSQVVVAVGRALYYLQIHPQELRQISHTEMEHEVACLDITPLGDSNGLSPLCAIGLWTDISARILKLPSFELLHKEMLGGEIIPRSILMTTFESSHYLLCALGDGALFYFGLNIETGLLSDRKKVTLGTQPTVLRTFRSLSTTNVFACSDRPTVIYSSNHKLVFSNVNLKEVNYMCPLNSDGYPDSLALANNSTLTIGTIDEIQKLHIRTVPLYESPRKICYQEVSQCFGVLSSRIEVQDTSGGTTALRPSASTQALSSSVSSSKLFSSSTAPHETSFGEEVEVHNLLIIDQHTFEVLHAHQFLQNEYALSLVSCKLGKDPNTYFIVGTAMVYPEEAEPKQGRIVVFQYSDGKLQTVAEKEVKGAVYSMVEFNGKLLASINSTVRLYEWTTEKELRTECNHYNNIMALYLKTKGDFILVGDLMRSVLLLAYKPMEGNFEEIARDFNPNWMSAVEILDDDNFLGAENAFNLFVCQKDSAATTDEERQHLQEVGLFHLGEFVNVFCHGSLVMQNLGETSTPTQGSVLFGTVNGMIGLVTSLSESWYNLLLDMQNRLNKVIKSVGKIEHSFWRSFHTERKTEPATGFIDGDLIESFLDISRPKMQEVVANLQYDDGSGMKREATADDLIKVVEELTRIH

For `CCn1c2c(OCc3ccc(CN4CCOCC4)cc3)cccc2c(=O)n1C1CCC(=O)NC1=O` (stereo not shown) [Compound D23, 3-(1-Ethyl-7-((4-(morpholinomethyl)benzyl)oxy)-3-oxo-1,3-dihydro-2H-indazol-2-yl)piperidine-2,6-dione], the IC50 is more than 10000 nM in the series with MM.1S cells, more than 20000 nM with MV-4-11 cells and more than 10000 nM with Mino cells. Moreover, the inhibition at 1 µM on CRBN/DDB1 was less than 50%.

Regarding `O=C1CCC(n2[nH]c3cc(C(=O)NCc4ccccc4)ccc3c2=O)C(=O)N1` (stereo not shown) [Compound D46, N-Benzyl-2-(2,6-dioxopiperidin-3-yl)-3-oxo-2,3-dihydro-1H-indazol-6-carboxamide], the IC50 in the series on MM.1S cells is more than 10000 nM; with MV-4-11 cells, more than 20000 nM; in the series on Mino cells it was more than 10000 nM. Moreover, the inhibition at 1 µM at CRBN/DDB1 is less than 50%.

Regarding `CCc1ccc([C@H](C)NC(=O)c2ccc3c(=O)n(C4CCC(=O)NC4=O)[nH]c3c2)cc1` (stereo partly drawn) [Compound D47, 2-(2,6-Dioxopiperidin-3-yl)-N-((S)-1-(4-ethylphenyl)ethyl)-3-oxo-2,3-dihydro-1H-indazol-6-carboxamide], the figures for the IC50 in the series on MM.1S cells, in the series with MV-4-11 cells and in the series with Mino cells were 200 to 1000 nM, 200 to 1000 nM and less than 200 nM, respectively. The inhibition at 1 µM at CRBN/DDB1 is less than 50%.

As for `O=C1CCC(n2[nH]c3c(OCc4ccc(CN5CCN(c6ccc(F)cc6F)CC5)cc4)cccc3c2=O)C(=O)N1` (stereo not shown) [Compound D7, 3-(7-((4-((4-(2,4-difluorophenyl)piperazin-1-yl)methyl)benzyl)oxy)-3-oxo-1,3-dihydro-2H-indazol-2-yl)piperidine-2,6-dione], the IC50 in the series with MM.1S cells, with MV-4-11 cells and with Mino cells was less than 200 nM each time. Besides, at CRBN/DDB1, the inhibition at 1 µM was more than 90%.

`N#Cc1ccc(N2CCN(Cc3ccc(COc4cc(F)cc5c(=O)n(C6CCC(=O)NC6=O)[nH]c45)cc3)CC2)c(F)c1` (stereo not shown) [Compound D14, 4-(4-(4-(((2-(2,6-dioxopiperidin-3-yl)-5-fluoro-3-oxo-2,3-dihydro-1H-indazol-7-yl)oxy)methyl)benzyl)piperazin-1-yl)-3-fluorobenzonitrile]: the IC50 with MM.1S cells, in the series on MV-4-11 cells and in the series with Mino cells was less than 200 nM each time. Moreover, the inhibition at 1 µM on CRBN/DDB1 is more than 90%.

As to `O=C1CCC(n2[nH]c3c(OCc4ccc(CN5CCN(c6ccc(F)cc6F)CC5)cc4)cc(F)cc3c2=O)C(=O)N1` (stereo not shown) [Compound D15, 3-(7-((4-((4-(2,4-difluorophenyl)piperazin-1-yl)methyl)benzyl)oxy)-5-fluoro-3-oxo-1,3-dihydro-2H-indazol-2-yl)piperidine-2,6-dione], the IC50 in the series on MM.1S cells, in the series on MV-4-11 cells and in the series on Mino cells was less than 200 nM throughout. Besides, the inhibition at 1 µM at CRBN/DDB1 fell in the range of 50 to 90%.

For `N#Cc1ccc(N2CCN(Cc3ccc(COc4cccc5c(=O)n([C@H]6CCC(=O)NC6=O)[nH]c45)cc3)CC2)c(F)c1` [Compound D2, (S)-4-(4-(4-(((2-(2,6-dioxopiperidin-3-yl)-3-oxo-2,3-dihydro-1H-indazol-7-yl)oxy)methyl)benzyl)piperazin-1-yl)-3-fluorobenzonitrile], the IC50 in the series on MM.1S cells, in the series with MV-4-11 cells and in the series with Mino cells was less than 200 nM throughout. The inhibition at 1 µM at CRBN/DDB1 is more than 90%.

Regarding `O=C1CCC(n2[nH]c3c(OCc4ccc(CN5CCN(c6cccc(Cl)c6)CC5)cc4)cccc3c2=O)C(=O)N1` (stereo not shown) [Compound D8, 3-(7-((4-((4-(3-chlorophenyl)piperazin-1-yl)methyl)benzyl)oxy)-3-oxo-1,3-dihydro-2H-indazol-2-yl)piperidine-2,6-dione], the IC50 in the series with MM.1S cells, in the series on MV-4-11 cells and with Mino cells was less than 200 nM throughout. In addition, on CRBN/DDB1, the inhibition at 1 µM is more than 90%.

Turning to `CC(C)(C)NC(=O)c1ccc2c(=O)n(C3CCC(=O)NC3=O)[nH]c2c1` (stereo not shown) [Compound D40, N-(tert-butyl)-2-(2,6-dioxopiperidin-3-yl)-3-oxo-2,3-dihydro-1H-indazole-6-carboxamide], the values for the IC50 in the series with MM.1S cells, with MV-4-11 cells and in the series on Mino cells were more than 10000 nM, more than 20000 nM and more than 10000 nM, respectively. Besides, the inhibition at 1 µM on CRBN/DDB1 is less than 50%.

On to `O=C1CCC(n2[nH]c3c(OCc4ccc(CN5CCN(c6ccc(Cl)cc6)CC5)cc4)cccc3c2=O)C(=O)N1` (stereo not shown) [Compound D9, 3-(7-((4-((4-(4-chlorophenyl)piperazin-1-yl)methyl)benzyl)oxy)-3-oxo-1,3-dihydro-2H-indazol-2-yl)piperidine-2,6-dione], for which the IC50 with MM.1S cells, in the series with MV-4-11 cells and in the series on Mino cells was less than 200 nM throughout. Further, the inhibition at 1 µM at CRBN/DDB1 is more than 90%.

For `O=C1CCC(N2C(=O)c3ccccc3C2=O)C(=O)N1` (stereo not shown) [thalidomide], the results for the hydrolysis half-life result in series [1] (pH 7), in series [1] (pH 7.4) and in series [1] (pH 8) were “about 11 hours”, approximately 5 h and approximately 1.25 h, respectively.
